Laboratory results from patent US20240092758A1, “IMIDAZOLO INDAZOLE COMPOUNDS AS JAK INHIBITORS” (Theravance Biopharma R&D IP, LLC, priority 2021, published 2024).

Legend:
[1] = target: JAK1 (Homo sapiens (Human), UniProt P23458); assay: Biochemical JAK kinase assay (LanthaScreen), JAK1; conditions: for Ki: read-out: JAK1 pKi (converted)
Protocol: (§1) A panel of four LanthaScreen JAK biochemical assays (JAK1, 2, 3 and Tyk2) were carried in a common kinase reaction buffer (50 mM HEPES, pH 7.5, 0.01% Brij-35, 10 mM MgCl2, and 1 mM EGTA). Recombinant GST-tagged JAK enzymes and a GFP-tagged STAT1 peptide substrate were obtained from Life Technologies.
(§2) Serially diluted compounds were pre-incubated with each of the four JAK enzymes and the substrate in white 384-well microplates (Corning) at ambient temperature for 1 h. ATP was subsequently added to initiate the kinase reactions in 10 μL total volume, with 1% DMSO. The final enzyme concentrations for JAK1, 2, 3 and Tyk2 are 4.2 nM, 0.1 nM, 1 nM, and 0.25 nM respectively; the corresponding Km ATP concentrations used are 25 μM, 3 μM, 1.6 μM, and 10 μM; while the substrate concentration is 200 nM for all four assays. Kinase reactions were allowed to proceed for 1 hour at ambient temperature before a 10 μL preparation of EDTA (10 mM final concentration) and Tb-anti-pSTAT1 (pTyr701) antibody (Life Technologies, 2 nM final concentration) in TR-FRET dilution buffer (Life Technologies) was added. The plates were allowed to incubate at ambient temperature for 1 h before being read on the EnVision reader (Perkin Elmer). Emission ratio signals (520 nm/495 nm) were recorded and utilized to calculate the percent inhibition values based on DMSO and background controls.
(§3) For dose-response analysis, percent inhibition data were plotted vs. compound concentrations, and IC50 values were determined from a 4-parameter robust fit model with the Prism software (GraphPad Software). Results were expressed as pIC50 (negative logarithm of IC50) and subsequently converted to pKi (negative logarithm of dissociation constant, Ki) using the Cheng-Prusoff equation.
(§4) Test compounds having a lower Ki value or higher pKi value in the four JAK assays show greater inhibition of JAK activity.

[2] = target: JAK2 (Homo sapiens (Human), UniProt O60674); assay: Biochemical JAK kinase assay (LanthaScreen), JAK2; conditions: for Ki: read-out: JAK2 pKi (converted)
Protocol: as §1, §2, §3, §4

[3] = system: IL-13 induced STAT6 phosphorylation in BEAS-2B human lung epithelial cells; assay: Cellular JAKI potency assay (BEAS-2B); assay type: cell-based; conditions: Homo sapiens, BEAS-2B, BEAS-2B cells, read-out: BEAS2B pIC50 (converted)
Protocol: The JAKI cellular potency assay was carried out by measuring inhibition of interleukin-13 (IL-13, R&D Systems) induced STAT6 phosphorylation in BEAS-2B human lung epithelial cells (ATCC). BEAS-2B cells were grown at 37° C. in a 5% CO2 humidified incubator in 50% DMEM/50% F-12 medium (Life Technologies) supplemented with 10% FBS (Hyclone), 100 U/mL penicillin, 100 μg/mL streptomycin (Life Technologies), and 2 mM GlutaMAX (Life Technologies). On day 1 of the assay, cells were seeded at a 7,500 cells/well density in white poly-D-lysine-coated 384-well plates (Corning) with 25 μL medium and were allowed to adhere overnight in the incubator. On day 2 of the assay, the medium was removed and replaced with 12 μL of assay buffer (Hank's Balanced Salt Solution/HBSS, 25 mM HEPES, and 1 mg/ml bovine serum albumin/BSA) containing dose-responses of test compounds. Compounds were serially diluted in DMSO and then diluted another 1000-fold in media to bring the final DMSO concentration to 0.1%. Cells were incubated with test compounds at 37° C. for 1 h and followed by the addition of 12 μl of pre-warmed IL-13 (80 ng/mL in assay buffer) for stimulation. After incubating at 37° C. for 30 min, the assay buffer (containing compound and IL-13) was removed, and 10 μL of cell lysis buffer (25 mM HEPES, 0.1% SDS, 1% NP-40, 5 mM MgCl2, 1.3 mM EDTA, 1 mM EGTA, supplemented with Complete Ultra mini protease inhibitors and PhosSTOP from Roche Diagnostics). The plates were shaken at ambient temperature for 30 min before the addition of detection reagents. Levels of pSTAT6 were measured using the AlphaLISA SureFire Ultra pSTAT6 (Tyr641) assay kit from PerkinElmer. For dose-response analysis, percent inhibition data were plotted vs. compound concentrations, and IC50 values were determined from a 4-parameter robust fit model with the Graphpad Prism software. Results are expressed as the negative logarithm of the IC50 value, pIC50.
Test compounds having a lower IC50 value or higher pIC50 value in this assay show greater inhibition of IL-13 induced STAT6 phosphorylation.

Chain of JAK1 (P23458 whole entry): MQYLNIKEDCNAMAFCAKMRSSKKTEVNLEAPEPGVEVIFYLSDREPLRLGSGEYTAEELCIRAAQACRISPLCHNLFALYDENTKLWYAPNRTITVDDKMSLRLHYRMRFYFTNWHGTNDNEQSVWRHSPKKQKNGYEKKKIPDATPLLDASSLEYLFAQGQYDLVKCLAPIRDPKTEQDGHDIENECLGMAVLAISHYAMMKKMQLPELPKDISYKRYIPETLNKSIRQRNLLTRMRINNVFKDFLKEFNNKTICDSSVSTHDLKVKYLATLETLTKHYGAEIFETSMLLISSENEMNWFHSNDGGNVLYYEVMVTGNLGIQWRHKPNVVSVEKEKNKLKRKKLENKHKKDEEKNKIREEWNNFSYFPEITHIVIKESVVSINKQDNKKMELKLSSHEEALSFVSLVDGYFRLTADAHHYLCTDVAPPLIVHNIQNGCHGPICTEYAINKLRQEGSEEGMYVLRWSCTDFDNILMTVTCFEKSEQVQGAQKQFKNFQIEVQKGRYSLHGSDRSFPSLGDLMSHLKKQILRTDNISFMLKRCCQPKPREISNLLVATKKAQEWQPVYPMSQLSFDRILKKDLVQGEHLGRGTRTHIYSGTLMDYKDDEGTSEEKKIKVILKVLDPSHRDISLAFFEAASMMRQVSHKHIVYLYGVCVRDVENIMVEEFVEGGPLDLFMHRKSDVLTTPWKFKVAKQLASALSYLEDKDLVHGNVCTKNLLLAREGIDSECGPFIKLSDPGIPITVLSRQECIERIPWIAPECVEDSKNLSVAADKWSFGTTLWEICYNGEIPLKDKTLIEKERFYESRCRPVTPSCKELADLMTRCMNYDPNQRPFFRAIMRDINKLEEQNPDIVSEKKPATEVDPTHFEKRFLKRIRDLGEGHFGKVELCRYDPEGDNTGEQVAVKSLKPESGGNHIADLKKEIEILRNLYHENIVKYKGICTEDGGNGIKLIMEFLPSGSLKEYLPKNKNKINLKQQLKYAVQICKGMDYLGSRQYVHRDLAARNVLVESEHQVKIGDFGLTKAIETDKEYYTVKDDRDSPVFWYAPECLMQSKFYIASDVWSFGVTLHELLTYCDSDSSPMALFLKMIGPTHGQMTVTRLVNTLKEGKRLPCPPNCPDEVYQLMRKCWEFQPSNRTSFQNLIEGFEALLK
Chain of JAK2 (O60674 whole entry): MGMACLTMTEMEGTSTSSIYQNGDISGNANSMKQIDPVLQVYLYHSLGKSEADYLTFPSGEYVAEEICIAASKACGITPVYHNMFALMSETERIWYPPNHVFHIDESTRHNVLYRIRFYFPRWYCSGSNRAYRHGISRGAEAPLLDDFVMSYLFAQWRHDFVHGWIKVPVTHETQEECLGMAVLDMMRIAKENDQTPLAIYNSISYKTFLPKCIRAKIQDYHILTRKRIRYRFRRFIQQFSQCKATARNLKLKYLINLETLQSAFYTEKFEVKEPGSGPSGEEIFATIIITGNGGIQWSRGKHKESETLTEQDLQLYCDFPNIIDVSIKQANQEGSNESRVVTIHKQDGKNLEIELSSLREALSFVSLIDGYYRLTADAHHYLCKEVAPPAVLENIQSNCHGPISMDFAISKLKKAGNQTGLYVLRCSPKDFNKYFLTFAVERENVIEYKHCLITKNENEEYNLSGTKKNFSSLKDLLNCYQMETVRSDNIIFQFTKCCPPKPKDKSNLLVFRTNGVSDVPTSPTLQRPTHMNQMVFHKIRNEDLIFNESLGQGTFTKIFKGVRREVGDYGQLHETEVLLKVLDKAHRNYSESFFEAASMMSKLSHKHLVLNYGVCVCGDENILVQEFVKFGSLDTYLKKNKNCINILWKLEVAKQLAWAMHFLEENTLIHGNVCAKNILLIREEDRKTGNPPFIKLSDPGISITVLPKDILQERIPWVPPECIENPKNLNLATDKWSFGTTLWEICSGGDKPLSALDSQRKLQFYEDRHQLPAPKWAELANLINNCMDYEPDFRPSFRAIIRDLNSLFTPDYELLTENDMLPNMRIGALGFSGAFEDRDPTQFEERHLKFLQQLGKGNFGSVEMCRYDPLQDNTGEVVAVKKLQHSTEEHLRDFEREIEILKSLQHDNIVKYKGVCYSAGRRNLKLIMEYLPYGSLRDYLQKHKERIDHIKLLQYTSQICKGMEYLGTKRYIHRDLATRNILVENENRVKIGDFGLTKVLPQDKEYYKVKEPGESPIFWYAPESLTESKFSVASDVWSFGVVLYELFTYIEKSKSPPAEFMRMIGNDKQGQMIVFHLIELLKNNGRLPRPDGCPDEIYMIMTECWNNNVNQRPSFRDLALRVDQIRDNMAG

**Q.** For `CCc1cc(O)ccc1-c1ccc2c(-c3nc(C4=CCN(CC(=O)NC)CC4)c[nH]3)n[nH]c2c1` [Example 78], which Ki [1] is on record?
**A.** 0.1 to 1 nM

**Q.** And the “JAK2 pKi” value [2]?
**A.** A (A represents a pKi value ≥10 (Ki≤0.1 nM))

**Q.** What about the IC50 [3] of the same molecule?
**A.** 10 to 31.6 nM

**Q.** With `Oc1ccc(-c2ccc3c(-c4nc(C5=CCNC5)c[nH]4)n[nH]c3c2)c(CC(F)(F)F)c1` [Example 378] as the molecule, how does the Ki [1] read?
**A.** 0.1 to 1 nM

**Q.** And the Ki [2]?
**A.** 0.1 to 1 nM

**Q.** What about the IC50 [3] of the same molecule?
**A.** 31.6 to 100 nM

**Q.** Which Ki [1] does the source give for `CCc1cc(O)ccc1-c1ccc2c(-c3nc(C4=CCN(CCN5CCNC5=O)C4)c[nH]3)n[nH]c2c1` [Example 127] here?
**A.** 0.1 to 1 nM

**Q.** What about the Ki [2] of the same molecule?
**A.** 0.1 to 1 nM

**Q.** And the IC50 [3]?
**A.** 10 to 31.6 nM

**Q.** With `CCc1cc(O)c(C)cc1-c1ccc2c(-c3nc(C4=CCNC4)c[nH]3)n[nH]c2c1F` [Example 328] as the molecule, how does the Ki [1] read?
**A.** 0.1 to 1 nM

**Q.** What about the Ki [2] of the same molecule?
**A.** 1 to 10 nM

**Q.** What about the IC50 [3] of the same molecule?
**A.** 10 to 31.6 nM

**Q.** How did the “JAK1 pKi” value [1] turn out when `CCc1cc(O)ccc1-c1ccc2c(-c3nc(C4=CCN([C@H]5CC[C@H](O)CC5)C4)c[nH]3)n[nH]c2c1` [Example 128] was run?
**A.** A (A represents a pKi value ≥10 (Ki≤0.1 nM))

**Q.** And the “JAK2 pKi” value [2]?
**A.** A (A represents a pKi value ≥10 (Ki≤0.1 nM))

**Q.** What about the IC50 [3] of the same molecule?
**A.** 3.16 to 10 nM

**Q.** With `CCc1cc(O)ccc1-c1ccc2c(-c3nc(C4=CCN(CCS(C)(=O)=O)CC4)c[nH]3)n[nH]c2c1` [Example 77] as the molecule, how does the Ki [1] read?
**A.** 0.1 to 1 nM

**Q.** What about the “JAK2 pKi” value [2] of the same molecule?
**A.** A (A represents a pKi value ≥10 (Ki≤0.1 nM))

**Q.** And the IC50 [3]?
**A.** 10 to 31.6 nM

**Q.** `CCc1cc(O)ccc1-c1ccc2c(-c3nc(C4=CCCN(CCc5ccccc5)C4)c[nH]3)n[nH]c2c1` [Example 139] was tested. Which Ki [1] did it give?
**A.** 1 to 10 nM

**Q.** What about the Ki [2] of the same molecule?
**A.** 0.1 to 1 nM

**Q.** What about the IC50 [3] of the same molecule?
**A.** 100 to 316 nM

**Q.** With `CCc1cc(O)ccc1-c1ccc2c(-c3nc(C4=CCCN(CCCOC)C4)c[nH]3)n[nH]c2c1F` [Example 67] as the molecule, how does the Ki [1] read?
**A.** 0.1 to 1 nM

**Q.** And the Ki [2]?
**A.** 0.1 to 1 nM

**Q.** What about the IC50 [3] of the same molecule?
**A.** 10 to 31.6 nM

**Q.** How did the “JAK1 pKi” value [1] turn out when `CCc1cc(O)ccc1-c1ccc2c(-c3nc(C4=CCCN(CCN5CCNC5=O)C4)c[nH]3)n[nH]c2c1` [Example 124] was run?
**A.** A (A represents a pKi value ≥10 (Ki≤0.1 nM))

**Q.** What about the “JAK2 pKi” value [2] of the same molecule?
**A.** A (A represents a pKi value ≥10 (Ki≤0.1 nM))

**Q.** What about the IC50 [3] of the same molecule?
**A.** 3.16 to 10 nM

**Q.** `CCc1cc(O)ccc1-c1ccc2c(-c3nc(C4=CCN(C5COC5)C4)c[nH]3)n[nH]c2c1` [Example 73] was tested. Which Ki [1] did it give?
**A.** 0.1 to 1 nM

**Q.** And the “JAK2 pKi” value [2]?
**A.** A (A represents a pKi value ≥10 (Ki≤0.1 nM))

**Q.** What about the IC50 [3] of the same molecule?
**A.** 10 to 31.6 nM

**Q.** How did the Ki [1] turn out when `CCc1cc(O)ccc1-c1ccc2c(-c3nc(C4=CCN(C[C@@H](C)CO)CC4)c[nH]3)n[nH]c2c1F` [Example 39] was run?
**A.** 0.1 to 1 nM

**Q.** And the Ki [2]?
**A.** 0.1 to 1 nM

**Q.** What about the IC50 [3] of the same molecule?
**A.** 10 to 31.6 nM

**Q.** For `CCc1cc(O)ccc1-c1ccc2c(-c3nc(C4=CCN(S(C)(=O)=O)CC4)c[nH]3)n[nH]c2c1F` [Example 155], which Ki [1] is on record?
**A.** 1 to 10 nM

**Q.** What about the Ki [2] of the same molecule?
**A.** 0.1 to 1 nM

**Q.** What about the IC50 [3] of the same molecule?
**A.** 10 to 31.6 nM

**Q.** What does the source list for `CCc1cc(O)ccc1-c1ccc2c(-c3nc(C4=CCN(Cc5ccccc5)C4)c[nH]3)n[nH]c2c1` [Example 140]?
**A.** Ki [1]: 0.1 to 1 nM; Ki [2]: 0.1 to 1 nM; IC50 [3]: 31.6 to 100 nM

**Q.** With `CCc1cc(O)ccc1-c1ccc2c(-c3nc(C4=CCN(CCNC(C)=O)C4)c[nH]3)n[nH]c2c1` [Example 114] as the molecule, how does the “JAK1 pKi” value [1] read?
**A.** A (A represents a pKi value ≥10 (Ki≤0.1 nM))

**Q.** What about the “JAK2 pKi” value [2] of the same molecule?
**A.** A (A represents a pKi value ≥10 (Ki≤0.1 nM))

**Q.** What about the IC50 [3] of the same molecule?
**A.** 3.16 to 10 nM

**Q.** `CCc1cc(O)ccc1-c1ccc2c(-c3nc(C4=CCCN(C(C)=O)C4)c[nH]3)n[nH]c2c1` [Example 159] was tested. Which Ki [1] did it give?
**A.** 0.1 to 1 nM

**Q.** What about the Ki [2] of the same molecule?
**A.** 0.1 to 1 nM

**Q.** What about the IC50 [3] of the same molecule?
**A.** 10 to 31.6 nM

**Q.** `CCc1cc(O)ccc1-c1ccc2c(-c3nc(C4=CCN(C(=O)CN5CCCC5)C4)c[nH]3)n[nH]c2c1F` [Example 351] was tested. Which Ki [1] did it give?
**A.** 0.1 to 1 nM

**Q.** What about the “JAK2 pKi” value [2] of the same molecule?
**A.** A (A represents a pKi value ≥10 (Ki≤0.1 nM))

**Q.** And the IC50 [3]?
**A.** 31.6 to 100 nM

**Q.** `CCc1cc(O)ccc1-c1ccc2c(-c3nc(C4=CCN(C(=O)CCN(C)C)C4)c[nH]3)n[nH]c2c1F` [Example 363] was tested. Which Ki [1] did it give?
**A.** 0.1 to 1 nM

**Q.** What about the “JAK2 pKi” value [2] of the same molecule?
**A.** A (A represents a pKi value ≥10 (Ki≤0.1 nM))

**Q.** What about the IC50 [3] of the same molecule?
**A.** 31.6 to 100 nM

**Q.** How did the Ki [1] turn out when `CCOC(=O)C1=C(c2c[nH]c(-c3n[nH]c4cc(-c5ccc(O)cc5CC)ccc34)n2)CCNC1` [Example 354] was run?
**A.** 0.1 to 1 nM

**Q.** And the Ki [2]?
**A.** 0.1 to 1 nM

**Q.** And the IC50 [3]?
**A.** 31.6 to 100 nM

**Q.** `CCOC(=O)C1=C(c2c[nH]c(-c3n[nH]c4cc(-c5ccc(O)cc5CC)ccc34)n2)CNCC1` [Example 302] was tested. Which “JAK1 pKi” value [1] did it give?
**A.** A (A represents a pKi value ≥10 (Ki≤0.1 nM))

**Q.** What about the Ki [2] of the same molecule?
**A.** 0.1 to 1 nM

**Q.** What about the IC50 [3] of the same molecule?
**A.** 10 to 31.6 nM
